Test system: human ENTPD2 engineered B16LM3 clone B5
Assay: Human ENTPD2 engineered B16LM3 clone B5 model, combination with A2AR antagonist NIR178
Format: in vivo
Conditions: NIR178 50 or 200 mg/kg p.o. 4 days on, 3 days off, combined with non-specific isotype control
Method: Human ENTPD2-engineered B16LM3 clone B5 was established in female C57BL/6 mice by subcutaneous injection of 0.5×10^6 cells into the right flank of each mouse. Once tumors reached approximately 50 mm^3, mice were randomized according to tumor volume into treatment groups (n=8 per group). Mice received an intravenous (i.v.) treatment of either anti-ENTPD2 mAb1 at a final dose of 10/mg/kg or a non-specific human IgG1 isotype control 10 mg/kg on day 1 of study. NIR178 was administered per os (p.o.) for 4 days on and 3 days off, starting at the beginning of study at either 50 mg/kg or 200 mg/kg. All doses were adjusted to individual mouse body weights. The study was carried out for thirteen days post treatment initiation and tumor volumes were assessed every other day to assess efficacy.

Nc1nc(-n2cccn2)nc(-n2cccn2)c1Br [NIR178, 5-bromo-2,6-di-(1H-pyrazol-1-yl)pyrimidine-4-amine, reference compound]
anti-tumor efficacy: No significant anti-tumor efficacy
